Tests used:
Assay type in all cases: physicochemical
[1] = Miscibility test with HFC-32
Experimental: (§1) First, 0.2 g of the oil [S1] was charged into a glass tube and then, the whole was cooled by liquid nitrogen. The interior of the glass tube was evacuated and, about 1.5 g of HFC-134a was introduced into the glass tube. The glass tube was sealed and placed in a temperature-controlled water bath. When the temperature was equilibriated, in the manner in which the miscibility of the oil [S1] with the fluoroalkane was visually evaluated, a miscibility limit was measured in the temperature range of from room temperature to 90 °C. A lower miscibility limit at temperatures lower than room temperature was likewise measured by cooling with a methanol cooling medium. The results are shown in Table 3 together with the results of Comparative Example 1.
The miscibility of the oil [S2] obtained in Referential Example 2 with HFC-32 (CH2F2) was evaluated in the same manner as in Example 1.

[2] = Kinetic viscosity (E-type rotational viscometer, Cannon-Fenske viscometer)
Source text: The kinetic viscosity of the lubricant oil for use in the present invention can be determined by measuring the viscosity by means of various viscometers. As the viscometer to be used for determining the kinetic viscosity, there can be mentioned a capillary viscometer, such as a Ubbellohde viscometer, an Ostward viscometer or a Cannon-Fenske viscometer, a rotational viscometer, and a falling ball viscometer. In the present invention, an E-type rotational viscometer (manufactured by Tokyo Keiki, Japan) and a Cannon-Fenske viscometer were used.

[3] = Evaluation of heat resistance (sealed tube test); conditions: 175 °C for 10 days with HFC-134a and steel, copper, aluminum pieces
Experimental: A glass tube was charged with 0.6 ml of purified oil [S1], HFC-134a and test pieces of steal copper and aluminum, and the glass tube was then sealed to enclose a refrigerant composition therein. The refrigerant composition was heated at 175 °C for 10 days. After the heating, any change of the hue of the refrigerant composition and any change of the surfaces of the metal pieces were examined.
The heat resistances of various compounds of the present invention were evaluated according to the sealed tube test in the same manner as described above. […]

[4] = Volume resistivity, JIS C2101 (insulating oil test); conditions: 20 °C; for volume resistivity: oil as obtained in the Referential Example
Experimental: Volume resistivity of the oil [S1] obtained in Referential Example 1 was measured according to the method of JIS C2101 (insulating oil test).

[5] = Insulation breakdown voltage, JIS C2101; conditions: oil purified with activated carbon
Experimental: 100 g of activated carbon (Calgon® CPG, manufactured by Calgon Far East, Japan) dried in vacuum at 150 °C for 3 hours was dispersed in 400 g of R-113 to obtain a suspension, and 200 g of the oil [S1] obtained in Example 40 was added thereto, followed by agitation at room temperature overnight. The activated carbon was removed by filtration and, then, the R-113 was dis tilled off, followed by simple distillation of the oil, thereby obtaining 140 g of a colorless, transparent oil. The oil obtained according to the present purification method was analyzed by gas chromatography. […] Further, each of the volume resistivities of the oil at 20 °C before and after purification was measured in substantially the same manner as in Example 45. […] The above results are shown in Table 13, together with the results of Comparative Examples 17 through 20.

[6] = Miscibility with mineral oil; conditions: weight ratio 50/50
[7] = Miscibility test with HFC-134a (sealed glass tube, visual evaluation); conditions: for Temperature range for being miscible with HFC-134a lower limit temperature (°C) / Temperature range for being miscible with HFC-134a upper limit temperature (°C): 0.2 g oil, about 1.5 g HFC-134a; for Temperature range for being miscible with HFC-134a upper limit temperature (°C): measured up to 90 °C
[8] = Miscibility test with HFC-125
Experimental: as §1
The miscibility of the oil [S2] obtained in Referential Example 2 with HFC-125 (CF3CHF2) was evaluated in the same manner as in Example 1.

[9] = Miscibility test with HFC-227ea
Experimental: as §1
The miscibility of the oil [S2] obtained in Referential Example 2 with HFC-227ea (CF3CHFCF3) was evaluated in the same manner as in Example 1.

[10] = Miscibility with polypropylene glycol; conditions: weight ratio 50/50; polypropylene glycol number average molecular weight 1000
[11] = Miscibility with ester oil; conditions: weight ratio 50/50
[12] = Miscibility with fluoroalkanes in general
Source text: The present inventors have examined the miscibilities of perfluoropolyethers having the various structures indicated below, inclusive of perfluoropolyethers (trade name: Fomblin Y-06, Y-25 and Y-45, manufactured and sold by Nippon Montedison Co., Ltd., Japan) employed in Examples of Japanese Patent Application Laid-Open Specification Nos. 60-96684 and 1-118598, with a fluoroalkane, such as HFC-134a, HFC-134 and HFC-152a. […] Accordingly, it has been confirmed that such perfluoropolyethers are not suitable as a lubricant for use in refrigeration equipment employing a fluoroalkane, such as HFC-134a, HFC-134 and HFC-152a, as a refrigerant. [drawing 1] wherein each of q1, q2, q3, q4, q5 and q6 is a positive integer.
The miscibilities of commercially available perfluoropolyether and 2,2-bis(4-ethoxyphenyl)propane with each of the above various fluoroalkane were evaluated, in substantially the same manner as in Example 1. The results are shown in Table 3 together with data of the kinetic viscosity at 40 °C.

[13] = mixing ratio [S2]/[S2]+HFC-134a 5 % by weight
[14] = mixing ratio [S2]/[S2]+HFC-134a 10 % by weight
[15] = mixing ratio [S2]/[S2]+HFC-134a 30 % by weight
[16] = mixing ratio [S2]/[S2]+HFC-134a 50 % by weight
[17] = mixing ratio [S2]/[S2]+HFC-134a 80 % by weight

Structure (SMILES): CC(C)(c1ccc(OC(F)(F)C(F)Cl)cc1)c1ccc(OC(F)(F)C(F)Cl)cc1 (centres unmarked) [[S1]]
- lower limit temperature to be miscible with HFC-32 [1]: -56 °C
- upper limit temperature to be miscible with HFC-32 [1]: ≥ 90 °C
- Kinetic viscosity (cSt)40°C [2]: 56.8 cSt
- kinetic viscosity at 100 °C [2]: 5.34 cSt
- After sealed tube test IR [3]: not changed at all
- After sealed tube test hue [3]: not changed
- After sealed tube test metal surface [3]: not changed
- After sealed tube test viscosity [3]: not changed at all
- volume resistivity [4]: 3.0 x 10^11 Ωcm
- Volume resistivity (Ωcm) before purification ([4]; oil of Example 40 ([S1]) or Example 44 ([S2]) before adsorbent treatment): 1.0 x 10^11 Ωcm
- volume resistivity after purification ([4]; purified with activated carbon (Calgon® CPG)): 2.2 x 10^13 Ωcm
- insulation breakdown voltage [5]: ≥ 50 kV/2.5 cm
- miscibility with mineral oil [6]: completely miscible

Structure (SMILES): CC(C)(c1ccc(OC(F)(F)C(F)F)cc1)c1ccc(OC(F)(F)C(F)F)cc1 [[S2]]
- Temperature range to be miscible (°C) lower limit temperature [7, 13]: -78 or below °C
- Temperature range to be miscible (°C) upper limit temperature [7, 13]: 90 or above °C
- Temperature range to be miscible (°C) lower limit temperature [7, 14]: -78 or below °C
- Temperature range to be miscible (°C) upper limit temperature [7, 14]: 90 or above °C
- Temperature range to be miscible (°C) lower limit temperature [7, 15]: -78 or below °C
- Temperature range to be miscible (°C) upper limit temperature [7, 15]: 90 or above °C
- Temperature range to be miscible (°C) lower limit temperature [7, 16]: -78 or below °C
- Temperature range to be miscible (°C) upper limit temperature [7, 16]: 90 or above °C
- Temperature range to be miscible (°C) lower limit temperature [7, 17]: -78 or below °C
- Temperature range to be miscible (°C) upper limit temperature [7, 17]: 90 or above °C
- lower limit temperature to be miscible with HFC-125 [8]: ≤ -78 °C
- upper limit temperature to be miscible with HFC-125 [8]: 90 °C
- lower limit temperature to be miscible with HFC-227ea [9]: ≤ -78 °C
- upper limit temperature to be miscible with HFC-227ea [9]: 90 °C
- lower limit temperature to be miscible with HFC-32 [1]: ≤ -78 °C
- upper limit temperature to be miscible with HFC-32 [1]: 90 °C
- Kinetic viscosity (cSt)40°C [2]: 26.2 cSt
- kinetic viscosity at 100 °C [2]: 3.40 cSt
- After sealed tube test IR [3]: not changed
- After sealed tube test hue [3]: not changed
- After sealed tube test metal surface [3]: not changed
- After sealed tube test viscosity [3]: not changed
- volume resistivity [4]: 5.7 x 10^11 Ωcm
- miscibility with polypropylene glycol [10]: completely miscible
- miscibility with ester oil [11]: completely miscible

Structure (SMILES): Cc1cc(C(C)(C)c2ccc(OC(F)(F)C(F)F)c(C)c2)ccc1OC(F)(F)C(F)F [[S5]]
- Temperature range for being miscible with HFC-134a lower limit temperature (°C) [7]: -78 or below °C
- Temperature range for being miscible with HFC-134a upper limit temperature (°C) [7]: 90 or above °C
- Kinetic viscosity (cSt)40°C [2]: 115 cSt
- After sealed tube test IR [3]: not changed
- After sealed tube test hue [3]: not changed
- After sealed tube test metal surface [3]: not changed
- After sealed tube test viscosity [3]: not changed
- volume resistivity [4]: 2.9 x 10^12 Ωcm

Structure (SMILES): CC(C)(c1ccc(OC(F)F)cc1)c1ccc(OC(F)F)cc1 [[S7]]
- Temperature range for being miscible with HFC-134a lower limit temperature (°C) [7]: -78 or below °C
- Temperature range for being miscible with HFC-134a upper limit temperature (°C) [7]: 90 or above °C
- Kinetic viscosity (cSt)40°C [2]: 4 cSt

Structure (SMILES): CC(C)(c1ccc(OC(F)(F)CF)cc1)c1ccc(OC(F)(F)CF)cc1 [[S9]]
- Temperature range for being miscible with HFC-134a lower limit temperature (°C) [7]: -78 or below °C
- Temperature range for being miscible with HFC-134a upper limit temperature (°C) [7]: 90 or above °C
- Kinetic viscosity (cSt)40°C [2]: 50 cSt

Structure (SMILES): CCOc1ccc(C(C)(C)c2ccc(OCC)cc2)cc1 [[S14], 2,2-bis(4-ethoxyphenyl)propane]
- miscibility with fluoroalkanes, such as HFC-134a [12]: little miscibility

From patent EP0790293A1, “Lubricant” (Asahi Kasei Kogyo Kabushiki Kaisha, priority 1991, dated 1992)
